Assay results as given in ChEMBL document CHEMBL4028802, “DILIrank: the largest reference drug list ranked by the risk for developing drug-induced liver injury in humans” (Drug Discov Today, 2016).

Assays:
Homo sapiens [1] = species on record: Homo sapiens; assay: Liver toxicity in human assessed as induction of drug-induced liver injury by measuring verified drug-induced liver injury concern status
Homo sapiens [2] = species on record: Homo sapiens; assay: Liver toxicity in human assessed as induction of drug-induced liver injury by measuring severity class index
Wherever DILI severity class is given: key of the grades not given here.

SMILES	DILI_Concern (Homo sapiens [1])	DILI_severity_class (Homo sapiens [2])
O=C(CCNNC(=O)c1ccncc1)NCc1ccccc1 [NIALAMIDE]	Most-Dili-Concern	8
COC(=O)C1=C(C)NC(C)=C(C(=O)OCCN(C)Cc2ccccc2)C1c1cccc([N+](=O)[O-])c1 (centres undefined) [NICARDIPINE]	Ambiguous-Dili-Concern	3
COC(=O)C1=C(C)NC(C)=C(C(=O)OC)C1c1ccccc1[N+](=O)[O-] [NIFEDIPINE]	Less-Dili-Concern	3
Cc1cn(-c2cc(NC(=O)c3ccc(C)c(Nc4nccc(-c5cccnc5)n4)c3)cc(C(F)(F)F)c2)cn1 [NILOTINIB]	Ambiguous-Dili-Concern	4
CC1(C)NC(=O)N(c2ccc([N+](=O)[O-])c(C(F)(F)F)c2)C1=O [NILUTAMIDE]	Most-Dili-Concern	8
CS(=O)(=O)Nc1ccc([N+](=O)[O-])cc1Oc1ccccc1 [NIMESULIDE]	Most-Dili-Concern	8
COCCOC(=O)C1=C(C)NC(C)=C(C(=O)OC(C)C)C1c1cccc([N+](=O)[O-])c1 (centres undefined) [NIMODIPINE]	Ambiguous-Dili-Concern	3
CN(C)Cc1ccc(CSCCN/C(=C\[N+](=O)[O-])NCc2ccc3c(c2)OCO3)o1 [NIPEROTIDINE]	Most-Dili-Concern	8
COC(=O)C1=C(C)NC(C)=C(C(=O)OCC(C)C)C1c1ccccc1[N+](=O)[O-] (centres undefined) [NISOLDIPINE]	Ambiguous-Dili-Concern	3
CC(=O)Oc1ccccc1C(=O)Nc1ncc([N+](=O)[O-])s1 [NITAZOXANIDE]	No-Dili-Concern	0
O=C1CCCC(=O)C1C(=O)c1ccc(C(F)(F)F)cc1[N+](=O)[O-] [NITISINONE]	Ambiguous-Dili-Concern	7
Cc1nc([N+](=O)[O-])cn1-c1ccc([N+](=O)[O-])cc1 [NITREFAZOLE]	Most-Dili-Concern	8
O=C1CN(/N=C/c2ccc([N+](=O)[O-])o2)C(=O)N1 [NITROFURANTOIN]	Most-Dili-Concern	8
O=[N+]([O-])OCC(CO[N+](=O)[O-])O[N+](=O)[O-] [NITROGLYCERIN]	No-Dili-Concern	0
CNC(=C[N+](=O)[O-])NCCSCc1csc(CN(C)C)n1 [NIZATIDINE]	Less-Dili-Concern	5
CN1Cc2c(N)cccc2C(c2ccccc2)C1 (centres undefined) [NOMIFENSINE]	Most-Dili-Concern	8
NC[C@H](O)c1ccc(O)c(O)c1 [NOREPINEPHRINE]	No-Dili-Concern	0
CCn1cc(C(=O)O)c(=O)c2cc(F)c(N3CCNCC3)cc21 [NORFLOXACIN]	Less-Dili-Concern	3
CNCCC=C1c2ccccc2CCc2ccccc21 [NORTRIPTYLINE]	Most-Dili-Concern	8
C[C@@H](O)[C@@H]1NC(=O)[C@H](CCCCN)NC(=O)[C@@H](Cc2c[nH]c3ccccc23)NC(=O)[C@H](Cc2ccccc2)NC(=O)[C@@H](NC(=O)[C@H](N)Cc2ccccc2)CSSC[C@@H](C(=O)N[C@H](CO)[C@@H](C)O)NC1=O [OCTREOTIDE]	Less-Dili-Concern	2
CC1COc2c(N3CCN(C)CC3)c(F)cc3c(=O)c(C(=O)O)cn1c23 (centres undefined) [OFLOXACIN]	Less-Dili-Concern	3

SMILES	DILI_Concern (Homo sapiens [1])	DILI_severity_class (Homo sapiens [2])
Cc1cc2c(s1)Nc1ccccc1N=C2N1CCN(C)CC1 [OLANZAPINE]	Less-Dili-Concern	3
CCCc1nc(C(C)(C)O)c(C(=O)OCc2oc(=O)oc2C)n1Cc1ccc(-c2ccccc2-c2nnn[nH]2)cc1 [OLMESARTAN MEDOXOMIL]	Ambiguous-Dili-Concern	4
O=C(O)c1cc(/N=N/c2ccc(O)c(C(=O)O)c2)ccc1O [OLSALAZINE]	Less-Dili-Concern	8
COc1ccc2[nH]c([S+]([O-])Cc3ncc(C)c(OC)c3C)nc2c1 (centres undefined) [OMEPRAZOLE]	Less-Dili-Concern	4
Cc1nccn1CC1CCc2c(c3ccccc3n2C)C1=O (centres undefined) [ONDANSETRON]	Less-Dili-Concern	7
CCCCCCCCCCC[C@@H](C[C@@H]1OC(=O)[C@H]1CCCCCC)OC(=O)[C@H](CC(C)C)NC=O [ORLISTAT]	Most-Dili-Concern	8
Cc1ccccc1C(OCCN(C)C)c1ccccc1 (centres undefined) [ORPHENADRINE]	No-Dili-Concern	0
CCOC(=O)C1=C[C@@H](OC(CC)CC)[C@H](NC(C)=O)[C@@H](N)C1 [OSELTAMIVIR]	Ambiguous-Dili-Concern	3
Cc1onc(-c2ccccc2)c1C(=O)N[C@@H]1C(=O)N2[C@@H]1SC(C)(C)[C@@H]2C(=O)O [OXACILLIN]	Less-Dili-Concern	3
C[C@]12COC(=O)C[C@@H]1CC[C@@H]1[C@@H]2CC[C@@]2(C)[C@H]1CC[C@]2(C)O [OXANDROLONE]	Most-Dili-Concern	8
O=C(O)CCc1nc(-c2ccccc2)c(-c2ccccc2)o1 [OXAPROZIN]	Less-Dili-Concern	3
O=C1Nc2ccc(Cl)cc2C(c2ccccc2)=NC1O (centres undefined) [OXAZEPAM]	Ambiguous-Dili-Concern	5
NC(=O)N1c2ccccc2CC(=O)c2ccccc21 [OXCARBAZEPINE]	Less-Dili-Concern	3
O=C(O)CCCO [OXYBATE]	No-Dili-Concern	0
CCN(CC)CC#CCOC(=O)C(O)(c1ccccc1)C1CCCCC1 (centres undefined) [OXYBUTYNIN]	No-Dili-Concern	0
COc1ccc2c3c1O[C@H]1C(=O)CC[C@@]4(O)[C@@H](C2)N(C)CC[C@]314 [OXYCODONE]	No-Dili-Concern	0
C[C@]12C/C(=C/O)C(=O)C[C@@H]1CC[C@@H]1[C@@H]2CC[C@@]2(C)[C@H]1CC[C@]2(C)O [OXYMETHOLONE]	Most-Dili-Concern	7
CN1CC[C@]23c4c5ccc(O)c4O[C@H]2C(=O)CC[C@@]3(O)[C@H]1C5 [OXYMORPHONE]	No-Dili-Concern	0
O=C1Nc2ccccc2C1(c1ccc(O)cc1)c1ccc(O)cc1 [OXYPHENISATINE]	Most-Dili-Concern	8
CN(C)[C@@H]1C(O)=C(C(N)=O)C(=O)[C@@]2(O)C(O)=C3C(=O)c4c(O)cccc4[C@@](C)(O)[C@H]3[C@H](O)[C@@H]12 [OXYTETRACYCLINE]	Ambiguous-Dili-Concern	2
CC[C@H](C)[C@@H]1NC(=O)[C@H](Cc2ccc(O)cc2)NC(=O)[C@@H](N)CSSC[C@@H](C(=O)N2CCC[C@H]2C(=O)N[C@@H](CC(C)C)C(=O)NCC(N)=O)NC(=O)[C@H](CC(N)=O)NC(=O)[C@H](CCC(N)=O)NC1=O [OXYTOCIN]	No-Dili-Concern	0
